According to PubChem BioAssay (NCI):
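How tested: cells in 96-well plates exposed to compound for 48 hours at five concentrations. Abbreviation: GI50, concentration required for 50% inhibition of growth. Definition used: TGI = concentration required for complete inhibition of growth.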

Legend:
Test in all cases: NCI anticancer screen, dose series, 48 h
[1] = system: CAKI-1 renal
[2] = system: DU-145 prostate
[3] = system: OVCAR-4 ovarian
[4] = system: T-47D breast
[5] = system: SNB-75 CNS
[6] = system: HS 578T breast
[7] = system: SN12C renal
[8] = system: SR leukemia
[9] = system: SF-268 CNS
[10] = system: SF-539 CNS
[11] = system: NCI/ADR-RES ovarian
[12] = system: MALME-3M melanoma
[13] = system: NCI-H226 lung
[14] = system: SNB-19 CNS
[15] = system: RXF 393 renal
[16] = system: UACC-62 melanoma
[17] = system: HOP-62 NSCLC
[18] = system: SW-620 colon
[19] = system: HCT-15 colon
[20] = system: HCT-116 colon
[21] = system: SK-OV-3 ovarian
[22] = system: SK-MEL-5 melanoma
[23] = system: HT29 colon
[24] = system: NCI-H460 lung
[25] = system: MDA-MB-231 breast
[26] = system: MOLT-4 leukemia
[27] = system: RPMI-8226 leukemia
[28] = system: LOX IMVI melanoma
[29] = system: TK-10 renal
[30] = system: NCI-H522 lung
[31] = system: EKVX NSCLC
[32] = system: UO-31 renal
[33] = system: A498 renal
[34] = system: PC-3 prostate
[35] = system: OVCAR-8 ovarian
[36] = system: SF-295 CNS
[37] = system: COLO 205 colon
[38] = system: UACC-257 melanoma
[39] = system: SK-MEL-2 melanoma
[40] = system: M14 melanoma
[41] = system: 786-0 renal
[42] = system: HCC-2998 colon
[43] = system: KM12 colon
[44] = system: IGROV1 ovarian
[45] = system: OVCAR-5 ovarian
[46] = system: OVCAR-3 ovarian
[47] = system: U251 CNS
[48] = system: CCRF-CEM leukemia
[49] = system: MDA-MB-435
[50] = system: A549 NSCLC
[51] = system: BT-549 breast
[52] = system: HOP-92 NSCLC
[53] = system: ACHN renal
[54] = system: MCF7 breast
[55] = system: NCI-H23 lung
[56] = system: SK-MEL-28 melanoma

For `Cc1cc2[nH]c(=O)c3c4ccccc4cn3c2cc1C`, the GI50 [1] was 5.33 µM, the TGI [1] was 17.8 µM and the GI50 [2] was 13.9 µM. It also gave a TGI [2] of 30.1 µM, a GI50 [3] of 13.5 µM and a TGI [3] of 27.6 µM. The GI50 [4] was 15.4 µM, the TGI [4] was 50 µM and the GI50 [5] was 15.5 µM. It also gave a TGI [5] of 30.4 µM, a GI50 [6] of 25 µM and a TGI [6] of 59.9 µM. For the same compound, the GI50 [7] was 6.02 µM, the TGI [7] was 20.3 µM and the GI50 [8] was 2.6 µM. The TGI [8] was 5.75 µM, the GI50 [9] was 15.3 µM and the TGI [9] was 32.4 µM. The GI50 [10] was 11.2 µM, the TGI [10] was 27 µM and the GI50 [11] was 13.6 µM. For the same compound, the TGI [11] was 31.7 µM, the GI50 [12] was 22.2 µM and the TGI [12] was 37.5 µM. For the same compound, the GI50 [13] was 15.1 µM, the TGI [13] was 36.7 µM and the GI50 [14] was 16.3 µM. The TGI [14] was 36.7 µM, the GI50 [15] was 12 µM and the TGI [15] was 27.4 µM. It also gave a GI50 [16] of 16.7 µM, a TGI [16] of 31.9 µM and a GI50 [17] of 2.71 µM. The TGI [17] was 8.18 µM, the GI50 [18] was 3.83 µM and the TGI [18] was 33.2 µM. It also gave a GI50 [19] of 6.18 µM, a TGI [19] of 22 µM and a GI50 [20] of 1.58 µM. For the same compound, the TGI [20] was 3.13 µM, the GI50 [21] was 18.4 µM and the TGI [21] was 34.5 µM. It also gave a GI50 [22] of 13.6 µM, a TGI [22] of 29.6 µM and a GI50 [23] of 6.09 µM. For the same compound, the TGI [23] was greater than 100 µM, the GI50 [24] was 4.43 µM and the TGI [24] was 20.3 µM. The GI50 [25] was 8.34 µM, the TGI [25] was 23.7 µM and the GI50 [26] was 5.68 µM. It also gave a TGI [26] of 19.4 µM, a GI50 [27] of 6.75 µM and a TGI [27] of 29.8 µM. The GI50 [28] was 2.04 µM, the TGI [28] was 4.02 µM and the GI50 [29] was 19.7 µM. For the same compound, the TGI [29] was 34.2 µM, the GI50 [30] was 14.5 µM and the TGI [30] was 31.1 µM. The GI50 [31] was 13.6 µM, the TGI [31] was 31.9 µM and the GI50 [32] was 14.6 µM. For the same compound, the TGI [32] was 28 µM, the GI50 [33] was 21.5 µM and the TGI [33] was 39.6 µM. For the same compound, the GI50 [34] was 12 µM, the TGI [34] was 25.4 µM and the GI50 [35] was 7.07 µM. The TGI [35] was 25.9 µM, the GI50 [36] was 12.2 µM and the TGI [36] was 28.5 µM. For the same compound, the GI50 [37] was 15.2 µM, the TGI [37] was 40 µM and the GI50 [38] was 20.2 µM. It also gave a TGI [38] of 35.9 µM, a GI50 [39] of 18.1 µM and a TGI [39] of 34.8 µM. It also gave a GI50 [40] of 13.6 µM, a TGI [40] of 26.9 µM and a GI50 [41] of 10.7 µM. It also gave a TGI [41] of 22.7 µM, a GI50 [42] of 4.04 µM and a TGI [42] of 16.7 µM. For the same compound, the GI50 [43] was 7.06 µM, the TGI [43] was 21.5 µM and the GI50 [44] was 12.3 µM. It also gave a TGI [44] of 26.6 µM, a GI50 [45] of 13.8 µM and a TGI [45] of 27.4 µM. It also gave a GI50 [46] of 14 µM, a TGI [46] of 28.5 µM and a GI50 [47] of 4.03 µM. For the same compound, the TGI [47] was 14.2 µM, the GI50 [48] was 9.92 µM and the TGI [48] was 31.2 µM. It also gave a GI50 [49] of 6 µM, a TGI [49] of 19.8 µM and a GI50 [50] of 14.8 µM. It also gave a TGI [50] of 37.7 µM, a GI50 [51] of 19.6 µM and a TGI [51] of 40.9 µM. For the same compound, the GI50 [52] was 15.4 µM, the TGI [52] was 30.2 µM and the GI50 [53] was 10.2 µM. It also gave a TGI [53] of 23.5 µM, a GI50 [54] of 11.8 µM and a TGI [54] greater than 100 µM. The GI50 [55] was 14.9 µM, the TGI [55] was 32.2 µM and the GI50 [56] was 14.8 µM. For the same compound, the TGI [56] was 35.1 µM.
